Source: the supplement of paper PMC10307832

Tests used:
Test in all cases: relative viability (nuclei count vs DMSO), 5 days (fraction); higher = more cells survive
[1] = compound: C1CSC2=C(C(=O)N1)SC3=C2C=C(C=C3)O [kb NB 142-70] + CC(=O)c1c(C)c2cnc(Nc3ccc(N4CCNCC4)cn3)nc2n(C2CCCC2)c1=O [Palbociclib] (partner 0.5 µM)
How it was run: (§1)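 Relative viability is defined as nuclei in treated wells over nuclei in vehicle wells. Duplicate plates were run and medians reported. Lung cancer cell lines in 1536-well plates were dosed by pin tool one day after seeding, with one drug or with a fixed anchor-drug dose plus five library-drug doses (not always all listed) in √10 steps, and nuclei were counted after 5 days.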

kb NB 142-70 + Dasatinib = compound: C1CSC2=C(C(=O)N1)SC3=C2C=C(C=C3)O [kb NB 142-70] + Cc1nc(Nc2ncc(C(=O)Nc3c(C)cccc3Cl)s2)cc(N2CCN(CCO)CC2)n1 [Dasatinib] (partner 0.075 µM)
How it was run: as §1

[2] = compound: NCC(=O)Nc1ccc(-n2nc(C(F)(F)F)cc2-c2ccc3c(ccc4ccccc43)c2)cc1 + COc1cc2c(Oc3ccc(NC(=O)C4(C(=O)Nc5ccc(F)cc5)CC4)cc3F)ccnc2cc1OCCCN1CCOCC1 [Foretinib] (partner 0.25 µM)
How it was run: as §1

[3] = compound: NCC(=O)Nc1ccc(-n2nc(C(F)(F)F)cc2-c2ccc3c(ccc4ccccc43)c2)cc1 + CS(=O)(=O)N1CCN(Cc2cc3nc(-c4cccc5[nH]ncc45)nc(N4CCOCC4)c3s2)CC1 [Pictilisib] (partner 1 µM)
How it was run: as §1

Cell Line | relative viability ([1]; first compound 0.1 µM) | relative viability ([1]; first compound 1 µM) | relative viability ([1]; first compound 3.162 µM) | relative viability (kb NB 142-70 + Dasatinib; first compound 0.1 µM) | relative viability (kb NB 142-70 + Dasatinib; first compound 1 µM) | relative viability (kb NB 142-70 + Dasatinib; first compound 3.162 µM) | relative viability ([2]; first compound 0.02 µM) | relative viability ([2]; first compound 0.06325 µM) | relative viability ([2]; first compound 0.2 µM) | relative viability ([2]; first compound 0.6325 µM) | relative viability ([2]; first compound 2 µM) | relative viability ([3]; first compound 0.02 µM) | relative viability ([3]; first compound 0.06325 µM) | relative viability ([3]; first compound 0.2 µM) | relative viability ([3]; first compound 0.6325 µM) | relative viability ([3]; first compound 2 µM)
NCI-H3122 | 0.181 | 0.199 | 0.187 | 0.803 | 0.794 | 0.84 | 0.973 | 0.906 | 1.01 | 0.962 | 0.888 | 0.696 | 0.592 | 0.532 | 0.571 | 0.628
NCI-H460 | 0.166 | 0.233 | 0.171 | 0.504 | 0.422 | 0.336 | 1.04 | 1.06 | 1.09 | 0.981 | 1.03 | 0.406 | 0.409 | 0.343 | 0.382 | 0.203
NCI-H650 | 0.362 | 0.422 | 0.394 | 0.495 | 0.475 | 0.377 | 1.04 | 1.07 | 1.02 | 1.01 | 1.09 | 0.843 | 0.913 | 1.05 | 0.782 | 0.948
NCI-H661 | 0.379 | 0.363 | 0.342 | 0.916 | 0.89 | 0.796 | 0.985 | 0.985 | 1.04 | 0.974 | 1.07 | 0.453 | 0.389 | 0.357 | 0.325 | 0.407
NCI-H1793 | 0.301 | 0.329 | 0.357 | 0.388 | 0.424 | 0.443 | 0.622 | 0.661 | 0.562 | 0.6 | 0.92 | 0.263 | 0.401 | 0.343 | 0.455 | 0.349
NCI-H1734 | 0.365 | 0.363 | 0.279 | 0.449 | 0.421 | 0.278 | 0.795 | 0.875 | 0.919 | 0.766 | 0.9 | 0.451 | 0.462 | 0.464 | 0.43 | 0.474
LXF-289 | 0.578 | 0.613 | 0.567 | 0.212 | 0.215 | 0.21 | 0.973 | 0.979 | 0.967 | 0.943 | 0.968 | 0.868 | 0.583 | 0.762 | 0.753 | 0.798
H3255 | 0.323 | 0.314 | 0.316 | 0.297 | 0.404 | 0.405 | 0.823 | 1.04 | 0.858 | 1.11 | 0.89 | 0.553 | 0.527 | 0.493 | 0.467 | 0.513
201T | 0.35 | 0.361 | 0.394 | 0.596 | 0.47 | 0.565 | 1.12 | 1.2 | 1.17 | 1.1 | 1.15 | 0.664 | 0.655 | 0.68 | 0.734 | 0.687
NCI-H2126 | 0.364 | 0.373 | 0.345 | 0.622 | 0.558 | 0.537 | 1.23 | 1.1 | 1.3 | 1.08 | 1.11 | 0.47 | 0.51 | 0.45 | 0.532 | 0.502
HOP-62 | 0.496 | 0.473 | 0.441 | 0.72 | 0.65 | 0.763 | 1.19 | 1.16 | 0.966 | 1.01 | 1.04 | 0.775 | 0.577 | 0.68 | 0.752 | 0.623
CAL-12T | 0.48 | 0.363 | 0.188 | 0.408 | 0.375 | 0.414 | 1.28 | 1.29 | 1.15 | 1.14 | 1.12 | 0.392 | 0.617 | 0.481 | 0.404 | 0.475
NCI-H520 | 0.234 | 0.21 | 0.164 | 0.168 | 0.197 | 0.173 | 0.852 | 0.831 | 0.677 | 0.725 | 0.917 | 0.351 | 0.265 | 0.323 | 0.277 | 0.277
NCI-H1755 | 0.466 | 0.411 | 0.44 | 0.456 | 0.425 | 0.419 | 0.928 | 0.882 | 0.947 | 0.921 | 0.905 | 0.384 | 0.487 | 0.454 | 0.435 | 0.479
NCI-H2023 | 0.389 | 0.379 | 0.257 | 0.51 | 0.536 | 0.5 | 1.01 | 0.905 | 0.947 | 0.731 | 0.859 | 0.229 | 0.232 | 0.201 | 0.207 | 0.242
NCI-H2009 | 0.286 | 0.304 | 0.285 | 0.321 | 0.284 | 0.155 | 1.27 | 1.19 | 1.38 | 1.14 | 1.25 | 0.734 | 0.906 | 0.819 | 0.86 | 0.967
